Laboratory results taken from the NIST ThermoML archive (doi:10.1016/j.jct.2012.09.026).

Assay: xn = mol fraction of the nth substance listed
Settings: Liquid

CC(C)(C)O [2-methylpropan-2-ol] + O
mass density [kg/m3]
Settings	278.15 K	288.15 K	298.15 K
101.3 kPa, Vibrating tube method, x1 = 0.0248	986.88	985.26	982.45
101.3 kPa, Vibrating tube method, x1 = 0.04241	981.87	978.77	974.54
101.3 kPa, Vibrating tube method, x1 = 0.05887	977	971.81	965.94
101.3 kPa, Vibrating tube method, x1 = 0.08929	963.35	956.03	949.01
101.3 kPa, Vibrating tube method, x1 = 0.1125	951.21	943.7	936.18
101.3 kPa, Vibrating tube method, x1 = 0.1566	929.91	922.09	914.18
101.3 kPa, Vibrating tube method, x1 = 0.208	910.57	902.66	894.55
101.3 kPa, Vibrating tube method, x1 = 0.3023	882.17	874	865.6
101.3 kPa, Vibrating tube method, x1 = 0.4045	860.22	851.78	843.11
101.3 kPa, Vibrating tube method, x1 = 0.4827	847.15	838.7	830.01
101.3 kPa, Vibrating tube method, x1 = 0.5344	839.61	830.98	822.05
101.3 kPa, Vibrating tube method, x1 = 0.6029	831.08	822.27	813.22
101.3 kPa, Vibrating tube method, x1 = 0.726	818.36	809.38	800.1
101.3 kPa, Vibrating tube method, x1 = 0.7999	812.56	803.46	794.07
101.3 kPa, Vibrating tube method, x1 = 0.8711	–	797.8	788.3
101.3 kPa, Vibrating tube method, x1 = 0.9183	–	794.66	785.07
101.3 kPa, Vibrating tube method, x1 = 0.9574	–	–	782.74
10000 kPa, Constant-volume piezometry, x1 = 0.0248	990.83	989.1	986.4
10000 kPa, Constant-volume piezometry, x1 = 0.04241	985.44	982.35	978.4
10000 kPa, Constant-volume piezometry, x1 = 0.05887	980.38	975.51	969.98
10000 kPa, Constant-volume piezometry, x1 = 0.08929	967.1	960.11	953.39
10000 kPa, Constant-volume piezometry, x1 = 0.1125	955.35	948.15	940.81
10000 kPa, Constant-volume piezometry, x1 = 0.1566	934.55	927.05	919.21
10000 kPa, Constant-volume piezometry, x1 = 0.208	915.88	908.09	899.99
10000 kPa, Constant-volume piezometry, x1 = 0.3023	888.19	880.07	871.71
10000 kPa, Constant-volume piezometry, x1 = 0.4045	866.8	858.48	849.93
10000 kPa, Constant-volume piezometry, x1 = 0.4827	854.18	845.78	837.26
10000 kPa, Constant-volume piezometry, x1 = 0.5344	–	838.32	829.58
10000 kPa, Constant-volume piezometry, x1 = 0.6029	–	–	821.11
25000 kPa, Constant-volume piezometry, x1 = 0.0248	996.63	994.94	992.33
25000 kPa, Constant-volume piezometry, x1 = 0.04241	990.81	987.9	984.21
25000 kPa, Constant-volume piezometry, x1 = 0.05887	985.66	981.16	975.95
25000 kPa, Constant-volume piezometry, x1 = 0.08929	972.88	966.27	959.85
25000 kPa, Constant-volume piezometry, x1 = 0.1125	961.59	954.74	947.61
25000 kPa, Constant-volume piezometry, x1 = 0.1566	941.34	934.17	926.51
25000 kPa, Constant-volume piezometry, x1 = 0.208	923.3	915.74	907.83
25000 kPa, Constant-volume piezometry, x1 = 0.3023	896.35	888.45	880.25
25000 kPa, Constant-volume piezometry, x1 = 0.4045	875.55	867.58	859.23
25000 kPa, Constant-volume piezometry, x1 = 0.4827	863.45	855.38	847.01
25000 kPa, Constant-volume piezometry, x1 = 0.5344	–	848.18	839.65
25000 kPa, Constant-volume piezometry, x1 = 0.6029	–	–	831.63
50000 kPa, Constant-volume piezometry, x1 = 0.0248	1005.84	1004.75	1002.03
50000 kPa, Constant-volume piezometry, x1 = 0.04241	999.56	997.38	993.67
50000 kPa, Constant-volume piezometry, x1 = 0.05887	994.6	990.56	985.61
50000 kPa, Constant-volume piezometry, x1 = 0.08929	982.34	976.26	970.06
50000 kPa, Constant-volume piezometry, x1 = 0.1125	971.7	965.1	958.37
50000 kPa, Constant-volume piezometry, x1 = 0.1566	952.1	945.1	937.98
50000 kPa, Constant-volume piezometry, x1 = 0.208	934.42	927.25	920
50000 kPa, Constant-volume piezometry, x1 = 0.3023	908.07	900.8	893.22
50000 kPa, Constant-volume piezometry, x1 = 0.4045	887.79	880.62	872.83
50000 kPa, Constant-volume piezometry, x1 = 0.4827	876.1	869.2	861.18
50000 kPa, Constant-volume piezometry, x1 = 0.5344	–	862.25	854.14
50000 kPa, Constant-volume piezometry, x1 = 0.6029	–	–	846.6
75000 kPa, Constant-volume piezometry, x1 = 0.0248	1014.43	1014.19	1011.23
75000 kPa, Constant-volume piezometry, x1 = 0.04241	1007.73	1006.42	1002.58
75000 kPa, Constant-volume piezometry, x1 = 0.05887	1002.96	999.48	994.71
75000 kPa, Constant-volume piezometry, x1 = 0.08929	991.23	985.6	979.52
75000 kPa, Constant-volume piezometry, x1 = 0.1125	981	974.66	968.17
75000 kPa, Constant-volume piezometry, x1 = 0.1566	961.89	955.07	948.39
75000 kPa, Constant-volume piezometry, x1 = 0.208	944.32	937.59	930.82
75000 kPa, Constant-volume piezometry, x1 = 0.3023	918.19	911.52	904.74
75000 kPa, Constant-volume piezometry, x1 = 0.4045	898.01	891.74	884.67
75000 kPa, Constant-volume piezometry, x1 = 0.4827	886.19	880.7	873.35
75000 kPa, Constant-volume piezometry, x1 = 0.5344	–	873.92	866.45
75000 kPa, Constant-volume piezometry, x1 = 0.6029	–	–	859.03
100000 kPa, Constant-volume piezometry, x1 = 0.0248	1022.28	1022.71	1019.69
100000 kPa, Constant-volume piezometry, x1 = 0.04241	1014.85	1014.15	–
100000 kPa, Constant-volume piezometry, x1 = 0.05887	1009.82	1007.36	–
100000 kPa, Constant-volume piezometry, x1 = 0.08929	999.16	993.91	–
100000 kPa, Constant-volume piezometry, x1 = 0.1125	988.91	983.36	–
100000 kPa, Constant-volume piezometry, x1 = 0.1566	970.36	964.36	–
100000 kPa, Constant-volume piezometry, x1 = 0.208	953.46	947.22	–
100000 kPa, Constant-volume piezometry, x1 = 0.3023	927.69	921.12	–
100000 kPa, Constant-volume piezometry, x1 = 0.4045	907.4	901.88	–
100000 kPa, Constant-volume piezometry, x1 = 0.4827	895.03	890.44	–
100000 kPa, Constant-volume piezometry, x1 = 0.5344	–	883.95	–
